Assay results: patent publication US10837001B2, “Cardiomyocyte maturation platform” (The Regents of the University of California, priority 2016, dated 2020)

How the values were obtained:
[1] = tested on: iPSC-derived cardiomyocytes; test: Pharmacological treatment of iPSC-derived cardiomyocytes (beat rate, calcium transient); assay type: cell-based, human
Description: The iPSC-derived cardiomyocytes have been engineered to express a calcium indicator (GCaMP6f reporter) that emits fluorescence in the presence of cytosolic calcium. Calcium transients were measured using an epifluorescent microscope with an inverted 10× objective (IX70 Olympus, Tokyo, Japan). Images were captured using a SPOT Idea 3.0 megapixel color fluorescent camera and SPOT acquisition software (SPOT Imaging Solutions, Sterling Heights, Mich.). The cells were placed in a 37° C. heated stage during imaging. The video was captured at 33 frames/second with 8×8 binning. ImageJ was used to process and extract the temporal fluorescence intensity of the acquired video data. Subsequent data were analyzed using MATLAB software (MathWorks, Torrance, Calif.). A customized algorithm determined the troughs and peaks of each calcium wave and measured the amplitude, max upslope, max downslope, time to 50% decay, and beat rate. Additional measurements included the effect of caffeine on the slope of amplitude change. Baseline and drug recordings were taken before and after 10 min incubation with the drug(s) on the 37° C. stage. All recordings were taken over 1 min. The order of the β-adrenergic drug treatments was baseline, 1 μM isoproterenol (Sigma #16504), and 1 μM Isoproterenol+10 μM Propranolol (Sigma # P0884). The effect of caffeine (Tocris #2793) on calcium signaling was assessed at a final concentration of 20 mM. The video recordings were acquired before and during the addition of caffeine.

iPSC-derived CM [2] = test: qPCR of maturation markers with EC-conditioned medium / EC co-culture and ET or notch inhibition; assay type: cell-based, human; settings: 20 μM, EC and CM co-cultured, 7 days
Description: EC and iPSC-derived CMs were plated onto Matrigel Growth Factor Reduced (BD) coated dishes. Cells were fed with RPMI media supplemented with B27 (Life Technologies) and Endothelial Cell Growth Supplement (ECGS; BD Biosciences) every 2-3 days. EC-conditioned medium was collected after 1-3 days of EC growth. Endothelin inhibition was achieved by adding 10 nM PD145065 inhibitor (EMD Millipore) and notch inhibition with 20 μM DAPT (Sigma) at every media change. Cells were fed on days 1 and 4 and then harvested after 7 days.
RNA was extracted using TRIzol (Life Technologies) according to manufacturer's instructions. Three micrograms of RNA was used to generate cDNA using the iSCRIPT cDNA Synthesis Kit (Bio-Rad). The reaction mix included SYBR green chemistry and primers generated by IDT Technologies. The samples were analyzed using an iQ5 Real Time PCR Detection System (Bio-Rad). The control sample, compared to EC/iPSC-derived CM co-culture, consisted of a mix of equal parts EC and iPSC-derived CM RNA that were isolated separately. (n=3; *p<0.05 **p<0.01 ***p<0.001, Student's t-test)

iPSC-derived CM [3] = settings: endothelial cells/cardiomyocyte co-culture; cited from earlier work

## CC(C)NCC(O)c1ccc(O)c(O)c1 (centres unmarked) [isoproterenol]
[1]; 1 μM, 10 min incubation
  Beat rate: increased their beat rate
[1]; cells cultured in 3D compared to cells in 2D culture
  Beat rate: increased beat rate

## C[C@H](NC(=O)Cc1cc(F)cc(F)c1)C(=O)N[C@H](C(=O)OC(C)(C)C)c1ccccc1 [DAPT]
iPSC-derived CM [2]
  Maturation markers Junctin, SERCA2a, CaV1.2: decrease
iPSC-derived CM [3]
  cTNT expression: decrease

## Cn1c(=O)c2c(ncn2C)n(C)c1=O [caffeine]
[1]; 20 mM, 3D culture vs 2D
  Calcium release: more rapid release of calcium
  Time to maximum calcium concentration: quicker
  Upslope (velocity of calcium release): steeper

## CC(C)NCC(O)COc1cccc2ccccc12 (centres unmarked) [propranolol]
[1]; 10 μM added after 1 μM isoproterenol
  Beat rate: decreased to baseline levels
